Values of other authors as cited in patent publication US4178376A, “Method for inducing rapid therapeutically effective antimalarial levels of certain selected conventional antimalarials” (Interx Research Corporation, priority 1977, dated 1979).

Conditions: water

Row | SMILES | aqueous solubility
1 | CCCCN(CCCC)CCC(O)c1cc(-c2ccc(C(F)(F)F)cc2)nc(-c2ccc(C(F)(F)F)cc2)c1 (centres unmarked) [3-Dibutylamino-1-[2,6-bis(4-trifluoromethylphenyl)-4-pyridyl] propanol] | approximately 7.0 mg per liter of water
2 | CCCCN(CCCC)CC(O)c1cc(-c2ccc(Cl)c(Cl)c2)nc2c(Cl)cc(Cl)cc12 (centres unmarked) [Compound I] | approximately 1.0 mg per liter of water
